Reference: patent US11046716B2, “Beta-lactamase inhibitors” (priority 2015, dated 2021)

Key:
[1] = target: T1, SHV-5 (Klebsiella pneumoniae, UniProt P0A3M1); assay: β-lactamase enzyme inhibition assay, SHV-5 (cefotaxime substrate); type: biochemical
T1 construct: made in house; host or cells: E. coli BL21(DE3)
How it was run: (§1)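 Compounds are mixed with purified, untagged recombinant β-lactamase and held 15 min at 37 °C. Substrate is then added: nitrocefin (100 μM final) for OXA-1, imipenem for KPC-2, cefotaxime for SHV-5. Absorbance is followed immediately, and percent inhibition per concentration gives the IC50.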

[2] = target: T2, KPC-2 (Klebsiella pneumoniae, UniProt Q9F663); assay: β-lactamase enzyme inhibition assay, KPC-2 (imipenem substrate); type: biochemical; settings: Class A; imipenem substrate, 300 nm; read-out: KPC-2
T2 construct: made in house; host or cells: E. coli BL21(DE3)
How it was run: as §1

[3] = target: T3, VIM-2 (Escherichia coli, UniProt Q5U7L7); assay: β-lactamase enzyme inhibition assay, VIM-2 (nitrocefin substrate); type: biochemical; settings: Class B; nitrocefin substrate, 486 nm; read-out: VIM-2
T3 construct: made in house; host or cells: E. coli BL21(DE3)
How it was run: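 First, VIM-2 purified by repeated anion exchange at pH 7.5 is mixed with inhibitor and held 15 min at 37 °C. Next, nitrocefin (final 100 μM) is dispensed and absorbance at 486 nm monitored immediately for 10 min. Rates versus uninhibited controls give IC50.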

[4] = target: T4, AmpC (Enterobacter cloacae, UniProt P05364); assay: β-lactamase enzyme inhibition assay, p99 AmpC (nitrocefin substrate); type: biochemical
T4 construct: made in house; host or cells: E. coli BL21(DE3)
How it was run: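 Compounds are mixed with purified, untagged recombinant β-lactamase and held 15 min at 37 °C. Substrate is then added. Absorbance is followed immediately, and percent inhibition per concentration gives the IC50.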

[5] = target: OXA-48 (UniProt Q6XEC0); assay: β-lactamase enzyme inhibition assay, Class D oxacillinase; type: biochemical; settings: read-out: OXA-48
[6] = system: E. coli expressing the Class A Extended Spectrum Beta-Lactamase (ESBL) CTX-M-15; assay: Broth microdilution MIC assay with ceftazidime, E. coli CTX-M-15; type: cell-based; settings: Fixed CAZ (ceftazidime) 4 μg/mL; E. coli ESBL4 CTX-M-15
How it was run: (§2)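 Strains grown 3-5 hours in CAMHB are inoculated by the CLSI broth microdilution method onto compound dilutions (16 to 0.125 μg/mL) overlaid with β-lactam at 4 μg/ml final. After 16-20 hours at 37° C, the lowest compound concentration inhibiting growth is taken as the MIC.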

[7] = system: E. cloacae expressing the Class C P99; assay: Broth microdilution MIC assay with ceftazidime, E. cloacae P99; type: cell-based; settings: Fixed CAZ (ceftazidime) 4 μg/mL; E. cl. 144200 p99 AmpC
How it was run: as §2

[8] = system: K. pneumoniae expressing the Class A carbapenemase KPC-2; assay: Broth microdilution MIC assay with meropenem, K. pneumoniae KPC-2; type: cell-based; settings: Fixed Mero (meropenem) 4 μg/mL; K. p. 156319 KPC-3
How it was run: as §2

[9] = system: P. aeruginosa expressing the Class B carbapenemase VIM-2; assay: Broth microdilution MIC assay with meropenem, P. aeruginosa VIM-2; type: cell-based; settings: Fixed Mero (meropenem) 4 μg/mL; P. aerug. 2775 VIM-2
How it was run: as §2

[10] = system: K. pneumoniae expressing the class A carbapenemase KPC-2 and the class B carbapenemase VIM-4; assay: Broth microdilution MIC assay with meropenem, K. pneumoniae KPC-2 and VIM-4; type: cell-based; settings: Fixed Mero (meropenem) 4 μg/mL; K. p. A-1797 KPC-2 VIM-4
How it was run: as §2

[11] = system: K. pneumoniae producing the Class D carbapenemase OXA-48; assay: Broth microdilution MIC assay with meropenem, K. pneumoniae OXA-48; type: cell-based; settings: Fixed Mero (meropenem) 4 μg/mL; K. p. 11978 OXA-48
How it was run: as §2

T2 sequence (Q9F663 25-293, looked up): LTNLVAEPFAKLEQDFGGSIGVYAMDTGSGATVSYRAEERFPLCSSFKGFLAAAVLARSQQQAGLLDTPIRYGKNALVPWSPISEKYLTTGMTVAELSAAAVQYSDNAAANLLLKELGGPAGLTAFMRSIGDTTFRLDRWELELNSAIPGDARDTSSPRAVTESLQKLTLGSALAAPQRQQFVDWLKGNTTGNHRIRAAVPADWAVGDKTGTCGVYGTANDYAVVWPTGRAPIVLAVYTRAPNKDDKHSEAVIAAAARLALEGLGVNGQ
T4 sequence (P05364 21-381): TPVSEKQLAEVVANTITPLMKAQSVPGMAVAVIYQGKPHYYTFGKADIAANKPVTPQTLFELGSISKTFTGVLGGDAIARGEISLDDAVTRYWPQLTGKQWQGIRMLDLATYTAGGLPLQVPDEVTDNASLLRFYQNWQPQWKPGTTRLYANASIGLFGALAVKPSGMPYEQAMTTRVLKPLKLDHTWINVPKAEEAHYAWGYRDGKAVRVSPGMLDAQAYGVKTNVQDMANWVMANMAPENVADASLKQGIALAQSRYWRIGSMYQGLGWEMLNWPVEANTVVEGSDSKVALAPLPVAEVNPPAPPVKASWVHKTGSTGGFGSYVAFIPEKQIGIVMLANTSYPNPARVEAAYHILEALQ
T1 sequence (P0A3M1 22-286): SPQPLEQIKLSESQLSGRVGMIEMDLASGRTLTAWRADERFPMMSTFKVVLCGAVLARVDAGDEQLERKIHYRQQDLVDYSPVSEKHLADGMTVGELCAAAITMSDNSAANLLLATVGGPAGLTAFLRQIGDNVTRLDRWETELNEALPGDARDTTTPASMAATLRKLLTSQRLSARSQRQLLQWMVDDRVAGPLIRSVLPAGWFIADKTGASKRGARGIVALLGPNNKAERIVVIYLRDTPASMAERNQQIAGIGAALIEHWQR

SMILES | IC50 [1] | IC50 [2] | IC50 [3] | IC50 [4] | IC50 [5] | MIC (μg/mL) of Exemplary Compounds in presence of fixed β-lactams: E. coli ESBL4 CTX-M-15 [6] | MIC (μg/mL) of Exemplary Compounds in presence of fixed β-lactams: E. cl. 144200 p99 AmpC [7] | MIC (μg/mL) of Exemplary Compounds in presence of fixed β-lactams: K. p. 156319 KPC-3 [8] | MIC (μg/mL) of Exemplary Compounds in presence of fixed β-lactams: P. aerug. 2775 VIM-2 [9] | MIC (μg/mL) of Exemplary Compounds in presence of fixed β-lactams: K. p. A-1797 KPC-2 VIM-4 [10] | MIC (μg/mL) of Exemplary Compounds in presence of fixed β-lactams: K. p. 11978 OXA-48 [11]
NCCn1cnc(C(=O)N[C@H]2Cc3cccc(C(=O)O)c3OB2O)c1 [Example 72, (R)-3-(1-(2-aminoethyl)-1H-imidazole-4-carboxamido)-2-hydroxy-3,4-dihydro-2H-benzo[e][1,2]oxaborinine-8-carboxylic acid] | < 100 nM | < 100 nM | 100 to 1000 nM | < 100 nM | 100 to 1000 nM | C (C represents an MIC of <1 μg/mL) | C (C represents an MIC of <1 μg/mL) | C (C represents an MIC of <1 μg/mL) | B (B represents an MIC between 1 and 16 μg/mL inclusive) | B (B represents an MIC between 1 and 16 μg/mL inclusive) | B (B represents an MIC between 1 and 16 μg/mL inclusive)
O=C(Cn1nnnc1CC(=O)N[C@H]1Cc2cccc(C(=O)O)c2OB1O)N[C@H]1CCNC1 [Example 43, (R)-2-hydroxy-3-(2-(1-(2-oxo-2-(((S)-pyrrolidin-3-yl)amino)ethyl)-1H-tetrazol-5-yl)acetamido)-3,4-dihydro-2H-benzo[e][1,2]oxaborinine-8-carboxylic acid] | < 100 nM | < 100 nM | < 100 nM | < 100 nM | 100 to 1000 nM | C (C represents an MIC of <1 μg/mL) | C (C represents an MIC of <1 μg/mL) | C (C represents an MIC of <1 μg/mL) | C (C represents an MIC of <1 μg/mL) | B (B represents an MIC between 1 and 16 μg/mL inclusive) | B (B represents an MIC between 1 and 16 μg/mL inclusive)
O=C(Cn1cc(CO)nn1)N[C@H]1Cc2cccc(C(=O)O)c2OB1O [Example 1, (R)-2-hydroxy-3-(2-(4-(hydroxymethyl)-1H-1,2,3-triazol-1-yl)acetamido)-3,4-dihydro-2H-benzo[e][1,2]oxaborinine-8-carboxylic acid] | < 100 nM | < 100 nM | 1000 to 10000 nM | < 100 nM | 100 to 1000 nM | C (C represents an MIC of <1 μg/mL) | C (C represents an MIC of <1 μg/mL) | B (B represents an MIC between 1 and 16 μg/mL inclusive) | B (B represents an MIC between 1 and 16 μg/mL inclusive) | B (B represents an MIC between 1 and 16 μg/mL inclusive) | B (B represents an MIC between 1 and 16 μg/mL inclusive)
O=C(Cn1cc(-c2ccsc2)nn1)N[C@H]1Cc2cccc(C(=O)O)c2OB1O [Example 29, (R)-2-hydroxy-3-(2-(4-(thiophen-3-yl)-1H-1,2,3-triazol-1-yl)acetamido)-3,4-dihydro-2H-benzo[e][1,2]oxaborinine-8-carboxylic acid] | < 100 nM | < 100 nM | 100 to 1000 nM | < 100 nM | 100 to 1000 nM | C (C represents an MIC of <1 μg/mL) | C (C represents an MIC of <1 μg/mL) | B (B represents an MIC between 1 and 16 μg/mL inclusive) | B (B represents an MIC between 1 and 16 μg/mL inclusive) | B (B represents an MIC between 1 and 16 μg/mL inclusive) | B (B represents an MIC between 1 and 16 μg/mL inclusive)
O=C(Cc1cn2ccsc2n1)N[C@H]1Cc2cccc(C(=O)O)c2OB1O [Example 78, (R)-2-hydroxy-3-(2-(imidazo[2,1-b]thiazol-6-yl)acetamido)-3,4-dihydro-2H-benzo[e][1,2]oxaborinine-8-carboxylic acid] | < 100 nM | < 100 nM | 100 to 1000 nM | < 100 nM | < 100 nM | C (C represents an MIC of <1 μg/mL) | C (C represents an MIC of <1 μg/mL) | B (B represents an MIC between 1 and 16 μg/mL inclusive) | B (B represents an MIC between 1 and 16 μg/mL inclusive) | A (A represents an MIC>16 μg/mL) | B (B represents an MIC between 1 and 16 μg/mL inclusive)
O=C(Cn1cc(C2CCNC2)nn1)N[C@H]1Cc2cccc(C(=O)O)c2OB1O (stereo partly drawn) [Example 89, (3R)-2-hydroxy-3-(2-(4-(pyrrolidin-3-yl)-1H-1,2,3-triazol-1-yl)acetamido)-3,4-dihydro-2H-benzo[e][1,2]oxaborinine-8-carboxylic acid] | 100 to 1000 nM | 100 to 1000 nM | 100 to 1000 nM | < 100 nM | 1000 to 10000 nM | C (C represents an MIC of <1 μg/mL) | C (C represents an MIC of <1 μg/mL) | C (C represents an MIC of <1 μg/mL) | C (C represents an MIC of <1 μg/mL) | B (B represents an MIC between 1 and 16 μg/mL inclusive) | B (B represents an MIC between 1 and 16 μg/mL inclusive)
CC(C)(C(=O)N[C@H]1Cc2cccc(C(=O)O)c2OB1O)n1cc(CNC(=N)N)nn1 [Example 39, (R)-3-(2-(4-(guanidinomethyl)-1H-1,2,3-triazol-1-yl)-2-methylpropanamido)-2-hydroxy-3,4-dihydro-2H-benzo[e][1,2]oxaborinine-8-carboxylic acid] | < 100 nM | < 100 nM | < 100 nM | < 100 nM | 100 to 1000 nM | C (C represents an MIC of <1 μg/mL) | C (C represents an MIC of <1 μg/mL) | B (B represents an MIC between 1 and 16 μg/mL inclusive) | C (C represents an MIC of <1 μg/mL) | B (B represents an MIC between 1 and 16 μg/mL inclusive) | B (B represents an MIC between 1 and 16 μg/mL inclusive)
